From ChEMBL document CHEMBL1208707, “T-type calcium channel blockers: spiro-piperidine azetidines and azetidinones-optimization, design and synthesis” (Bioorg Med Chem Lett, 2010)
The source made the active and inactive calls. No cut-off for these calls is given here.

What was measured:
Cytochrome P450 2C9 [1] = target: T1, Cytochrome P450 2C9 (Homo sapiens, UniProt P11712); test: Inhibition of CYP2C9 preincubated with compound; assay type: ADME; conditions: read-out: INH
Cytochrome P450 2C9 [2] = target: T1, Cytochrome P450 2C9; test: Inhibition of CYP2C9 coincubated with compound; assay type: ADME; conditions: read-out: INH
[3] = Permeability across human Caco-2 cells; assay type: ADME, cell-based; conditions: read-out: permeability
[4] = target: Transient receptor potential cation channel subfamily V member 1 (Homo sapiens) (UniProt Q8NER1); test: Inhibition of TRPV1 expressed in HEK293 assessed as capsaicin activation cells at 3.3 ug/mL by FLIPR assay; assay type: cell-based
Transient receptor potential cation channel subfamily V member 1 (Homo sapiens), sequence (Q8NER1 whole entry): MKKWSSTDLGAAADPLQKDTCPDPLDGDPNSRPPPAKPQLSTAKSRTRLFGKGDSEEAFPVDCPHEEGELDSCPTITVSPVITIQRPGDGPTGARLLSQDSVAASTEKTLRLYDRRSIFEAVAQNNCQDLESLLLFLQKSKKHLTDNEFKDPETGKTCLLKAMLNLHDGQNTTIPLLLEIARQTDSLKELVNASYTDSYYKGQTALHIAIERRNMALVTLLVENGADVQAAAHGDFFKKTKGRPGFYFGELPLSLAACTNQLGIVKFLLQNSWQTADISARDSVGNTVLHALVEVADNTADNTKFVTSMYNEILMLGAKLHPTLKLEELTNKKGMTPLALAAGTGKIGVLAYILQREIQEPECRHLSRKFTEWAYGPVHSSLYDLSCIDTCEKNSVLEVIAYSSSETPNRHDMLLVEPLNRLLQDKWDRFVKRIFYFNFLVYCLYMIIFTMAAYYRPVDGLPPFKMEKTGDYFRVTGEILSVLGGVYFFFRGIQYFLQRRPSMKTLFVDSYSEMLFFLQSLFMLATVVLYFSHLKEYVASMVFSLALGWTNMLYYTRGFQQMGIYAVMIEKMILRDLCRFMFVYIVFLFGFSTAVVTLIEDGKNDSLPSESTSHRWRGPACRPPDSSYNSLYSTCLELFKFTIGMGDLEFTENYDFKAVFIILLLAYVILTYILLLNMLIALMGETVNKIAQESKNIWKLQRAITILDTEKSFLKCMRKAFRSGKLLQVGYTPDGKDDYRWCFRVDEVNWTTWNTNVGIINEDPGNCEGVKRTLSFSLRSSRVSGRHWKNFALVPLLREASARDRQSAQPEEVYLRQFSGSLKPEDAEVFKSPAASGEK

Cytochrome P450 3A4 = Cytochrome P450 3A4 (Homo sapiens, UniProt P08684); test: Inhibition of CYP3A4 coincubated with compound; assay type: ADME; conditions: read-out: INH
Cytochrome P450 3A4, sequence (P08684 whole entry): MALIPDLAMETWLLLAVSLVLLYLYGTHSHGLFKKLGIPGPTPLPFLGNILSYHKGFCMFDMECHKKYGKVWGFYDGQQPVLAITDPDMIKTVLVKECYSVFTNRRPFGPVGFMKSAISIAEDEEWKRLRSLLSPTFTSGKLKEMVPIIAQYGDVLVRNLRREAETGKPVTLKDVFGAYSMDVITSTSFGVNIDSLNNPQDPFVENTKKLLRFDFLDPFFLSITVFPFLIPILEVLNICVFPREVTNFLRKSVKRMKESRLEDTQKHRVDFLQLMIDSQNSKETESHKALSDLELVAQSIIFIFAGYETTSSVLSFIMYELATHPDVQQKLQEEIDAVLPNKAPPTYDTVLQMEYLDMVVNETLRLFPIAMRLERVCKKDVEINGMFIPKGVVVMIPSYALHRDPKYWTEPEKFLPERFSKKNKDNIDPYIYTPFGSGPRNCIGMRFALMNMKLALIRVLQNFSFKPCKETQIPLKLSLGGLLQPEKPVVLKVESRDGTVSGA

[5] = target: T2, Voltage-dependent T-type calcium channel subunit alpha-1H (Homo sapiens, UniProt O95180); test: Inhibition of human CaV3.2 expressed in HEK293 cells at -100 mV membrane potential by Ionworks HT assay; assay type: cell-based
T2 sequence (O95180 whole entry): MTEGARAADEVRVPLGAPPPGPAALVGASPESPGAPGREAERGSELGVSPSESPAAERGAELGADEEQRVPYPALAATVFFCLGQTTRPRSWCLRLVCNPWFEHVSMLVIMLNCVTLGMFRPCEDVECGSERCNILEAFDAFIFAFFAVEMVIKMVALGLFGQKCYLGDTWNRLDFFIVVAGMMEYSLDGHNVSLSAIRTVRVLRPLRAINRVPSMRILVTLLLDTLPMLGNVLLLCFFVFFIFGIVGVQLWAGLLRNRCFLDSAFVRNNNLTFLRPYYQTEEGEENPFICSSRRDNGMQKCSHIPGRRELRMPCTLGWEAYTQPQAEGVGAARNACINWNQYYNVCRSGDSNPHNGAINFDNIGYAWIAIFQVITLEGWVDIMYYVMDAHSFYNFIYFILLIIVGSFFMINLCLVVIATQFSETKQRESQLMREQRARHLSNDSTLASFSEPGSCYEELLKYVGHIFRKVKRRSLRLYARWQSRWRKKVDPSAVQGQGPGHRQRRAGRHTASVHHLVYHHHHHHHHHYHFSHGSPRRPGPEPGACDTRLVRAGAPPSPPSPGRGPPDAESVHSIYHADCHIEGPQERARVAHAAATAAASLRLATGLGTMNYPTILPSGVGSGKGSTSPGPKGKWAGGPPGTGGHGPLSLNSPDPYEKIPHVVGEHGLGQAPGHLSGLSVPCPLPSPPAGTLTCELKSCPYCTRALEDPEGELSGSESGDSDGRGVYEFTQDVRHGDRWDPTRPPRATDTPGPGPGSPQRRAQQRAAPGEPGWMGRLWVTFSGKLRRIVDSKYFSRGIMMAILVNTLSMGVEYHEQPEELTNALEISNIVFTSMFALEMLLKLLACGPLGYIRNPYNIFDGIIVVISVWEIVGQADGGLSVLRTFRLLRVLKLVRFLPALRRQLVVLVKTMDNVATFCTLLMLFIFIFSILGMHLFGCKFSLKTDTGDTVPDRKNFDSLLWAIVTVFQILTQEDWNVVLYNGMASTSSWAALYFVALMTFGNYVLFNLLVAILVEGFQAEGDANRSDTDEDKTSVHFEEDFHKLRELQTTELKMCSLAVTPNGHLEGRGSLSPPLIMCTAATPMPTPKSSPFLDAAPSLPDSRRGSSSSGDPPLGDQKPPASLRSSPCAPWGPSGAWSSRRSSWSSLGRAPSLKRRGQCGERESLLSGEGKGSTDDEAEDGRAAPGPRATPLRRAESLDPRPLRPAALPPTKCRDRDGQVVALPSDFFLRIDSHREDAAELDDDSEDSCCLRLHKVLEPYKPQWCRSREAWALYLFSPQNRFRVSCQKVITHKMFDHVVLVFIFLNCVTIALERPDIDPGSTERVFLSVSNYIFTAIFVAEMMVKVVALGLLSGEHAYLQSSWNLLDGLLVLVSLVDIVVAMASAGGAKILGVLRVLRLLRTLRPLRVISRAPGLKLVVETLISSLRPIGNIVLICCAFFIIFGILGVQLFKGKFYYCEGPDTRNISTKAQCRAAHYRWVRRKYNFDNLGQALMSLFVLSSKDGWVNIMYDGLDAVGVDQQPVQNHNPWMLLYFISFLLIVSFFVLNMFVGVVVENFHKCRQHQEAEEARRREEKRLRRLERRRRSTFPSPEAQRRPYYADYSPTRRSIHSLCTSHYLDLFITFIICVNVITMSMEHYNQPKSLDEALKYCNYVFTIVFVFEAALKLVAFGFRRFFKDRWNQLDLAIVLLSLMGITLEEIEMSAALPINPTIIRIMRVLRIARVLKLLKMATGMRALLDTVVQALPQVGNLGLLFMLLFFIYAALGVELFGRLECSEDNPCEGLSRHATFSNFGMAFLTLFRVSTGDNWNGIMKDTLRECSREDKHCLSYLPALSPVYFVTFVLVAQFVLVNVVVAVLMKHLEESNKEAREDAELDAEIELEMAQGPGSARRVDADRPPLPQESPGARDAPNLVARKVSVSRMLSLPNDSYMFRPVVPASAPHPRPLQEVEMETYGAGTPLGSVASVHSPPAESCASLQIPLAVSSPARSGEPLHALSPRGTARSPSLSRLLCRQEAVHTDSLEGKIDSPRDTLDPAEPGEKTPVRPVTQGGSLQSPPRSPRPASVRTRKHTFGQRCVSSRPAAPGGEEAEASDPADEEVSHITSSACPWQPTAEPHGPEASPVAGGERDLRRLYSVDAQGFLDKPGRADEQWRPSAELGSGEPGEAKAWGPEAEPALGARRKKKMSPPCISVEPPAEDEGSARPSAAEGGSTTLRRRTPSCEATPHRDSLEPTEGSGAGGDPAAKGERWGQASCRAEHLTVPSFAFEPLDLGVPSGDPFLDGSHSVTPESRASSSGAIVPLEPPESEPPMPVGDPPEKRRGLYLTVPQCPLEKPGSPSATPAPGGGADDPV

[6] = target: T2, Voltage-dependent T-type calcium channel subunit alpha-1H; test: Inhibition of human CaV3.2 expressed in HEK293 cells at -100 mV membrane potential by whole cell path clamp method; assay type: cell-based
Cytochrome P450 2D6 [7] = target: T3, Cytochrome P450 2D6 (Homo sapiens, UniProt P10635); test: Inhibition of CYP2D6 preincubated with compound; assay type: ADME
T3 sequence (P10635 whole entry): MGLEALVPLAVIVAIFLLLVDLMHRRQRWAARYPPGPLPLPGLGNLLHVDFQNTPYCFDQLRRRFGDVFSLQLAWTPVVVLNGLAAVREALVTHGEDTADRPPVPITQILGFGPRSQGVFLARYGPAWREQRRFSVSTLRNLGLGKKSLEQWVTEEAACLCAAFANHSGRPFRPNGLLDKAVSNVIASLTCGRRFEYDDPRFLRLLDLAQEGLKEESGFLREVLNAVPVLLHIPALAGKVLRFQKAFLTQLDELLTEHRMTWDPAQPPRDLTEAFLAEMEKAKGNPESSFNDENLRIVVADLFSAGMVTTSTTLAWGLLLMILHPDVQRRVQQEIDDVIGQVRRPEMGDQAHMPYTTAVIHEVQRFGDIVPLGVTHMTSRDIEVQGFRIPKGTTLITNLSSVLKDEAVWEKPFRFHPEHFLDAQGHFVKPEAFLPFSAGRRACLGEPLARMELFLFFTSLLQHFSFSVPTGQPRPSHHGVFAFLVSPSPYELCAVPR

Cytochrome P450 2D6 [8] = target: T3, Cytochrome P450 2D6; test: Inhibition of CYP2D6 coincubated with compound; assay type: ADME
[9] = (§1) Protein binding in rat plasma; assay type: ADME, cell-free; conditions: read-out: PPB (converted)
[10] = AUC in po dosed rat; assay type: ADME, organism-based; conditions: plasma
Plasma = test: as §1; assay type: ADME, cell-free
Rattus norvegicus [11] = test: Plasma concentration in SNL rat at 100 mg/kg, po; assay type: ADME, organism-based; parameters: dose 100 mg/kg, route oral; conditions: in vivo
Homo sapiens = species on record: Homo sapiens; test: Protein binding in human plasma; conditions: read-out: PPB (converted)
Rattus norvegicus [12] = test: In vivo inhibition of TRPV1 activation in SNL rat at 100 mg/kg, po; assay type: functional, organism-based; parameters: dose 100 mg/kg
Rattus norvegicus [13] = test: In vivo inhibition of TRPV1 activation in SNL rat at 50 mg/kg, po; assay type: functional, organism-based; parameters: dose 50 mg/kg
Rattus norvegicus [14] = test: In vivo inhibition of TRPV1 activation in SNL rat at 10 mg/kg, po; assay type: functional, organism-based; parameters: dose 10 mg/kg
Rattus norvegicus [15] = test: In vivo inhibition of TRPV1 activation in SNL rat at 30 mg/kg, po; assay type: functional, organism-based; parameters: dose 30 mg/kg
Rattus norvegicus [16] = test: In vivo inhibition of TRPV1 activation in SNL rat at 30 and 60 mg/kg, po; assay type: functional, organism-based; parameters: dose 60 mg/kg
Rattus norvegicus [17] = test: Plasma concentration in SNL rat at 10 mg/kg, po; assay type: ADME, organism-based; parameters: dose 10 mg/kg, route oral; conditions: in vivo

T1 sequence (P11712 whole entry): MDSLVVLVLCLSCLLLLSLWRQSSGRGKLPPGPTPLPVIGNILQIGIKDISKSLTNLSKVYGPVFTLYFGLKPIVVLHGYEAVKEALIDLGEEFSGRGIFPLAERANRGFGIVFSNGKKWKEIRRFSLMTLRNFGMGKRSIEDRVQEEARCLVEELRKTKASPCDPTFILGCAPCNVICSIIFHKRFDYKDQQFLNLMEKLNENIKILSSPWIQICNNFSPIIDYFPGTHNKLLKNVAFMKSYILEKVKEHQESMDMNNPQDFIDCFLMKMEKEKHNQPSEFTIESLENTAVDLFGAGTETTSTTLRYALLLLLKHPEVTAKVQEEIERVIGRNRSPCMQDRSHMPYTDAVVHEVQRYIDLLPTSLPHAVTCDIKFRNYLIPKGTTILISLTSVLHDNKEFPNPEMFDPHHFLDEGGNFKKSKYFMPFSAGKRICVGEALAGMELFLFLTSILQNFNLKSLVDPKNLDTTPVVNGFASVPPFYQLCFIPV

SMILES | inhibition [4] | IC50 [5] | IC50 [6] | fraction unbound [9] | other results
C[C@H](NC(=O)N1CCC2(CC1)C(=O)N(c1cccc(F)c1)C2c1ccc(Cl)cc1)c1ccc(F)cc1 (some centres undefined) | 2.4% |  |  | 0.001 | 
O=C1N(c2cccc(Cl)c2)C(c2ccccn2)C12CCN(c1nc3cc(F)c(C(F)(F)F)cc3[nH]1)CC2 (centres undefined) | 37.9% | 44 nM | 63 nM |  | 
O=C1N(c2ccc(F)c(Cl)c2)C(c2ccccn2)C12CCN(c1nc3ccc(Cl)cc3[nH]1)CC2 (centres undefined) | 86.2% | 78 nM | 71 nM |  | AUC [10]: 41.2 µM·h
O=C1N(c2ccc(F)c(Cl)c2)C(c2ccccn2)C12CCN(c1nc3cc(F)c(Cl)cc3[nH]1)CC2 (centres undefined) | 8.6% | 60 nM | 84 nM | 0.002 | 
CC[C@H](C)[C@H](NC(=O)N1CCC2(CC1)CN(C(C)C)C2c1ccc(Cl)cc1)C(=O)OC (stereo in doubt; 2) |  | 104 nM | 123 nM |  | IC50 (Cytochrome P450 2C9 [1]): > 30000 nM; IC50 (Cytochrome P450 2C9 [2]): > 30000 nM; Papp [3]: 13.4 ×10⁻⁶ cm/s; IC50 (Cytochrome P450 3A4): > 30000 nM; INH (Cytochrome P450 2D6 [7]): 8.1 µM; INH (Cytochrome P450 2D6 [8]): 0.9 µM
O=C(Nc1cc(F)cc(F)c1)N1CCC2(CC1)C(=O)N(c1ccc(F)c(Cl)c1)C2c1ccccn1 (stereo in doubt; 39a) [listing 2 of 2 here] |  |  |  |  | inhibition (Rattus norvegicus [12]): inactive
O=C(Nc1cc(F)cc(F)c1)N1CCC2(CC1)C(=O)N(c1ccc(F)c(Cl)c1)C2c1ccccn1 (stereo in doubt; 39b) |  |  |  |  | inhibition (Rattus norvegicus [13]): inactive; inhibition (Rattus norvegicus [14]): inactive
O=C(Nc1ccc(F)c(F)c1)N1CCC2(CC1)C(=O)N(c1ccc(F)c(Cl)c1)C2c1ccccn1 (stereo in doubt; 40a) |  | 41 nM | 17700 nM | 0.004 | 
O=C(Nc1cccc(C(F)(F)F)c1)N1CCC2(CC1)C(=O)N(c1ccc(F)c(F)c1)C2c1ccccn1 (stereo in doubt; 41a) |  |  |  |  | inhibition (Rattus norvegicus [15]): inactive
O=C(Nc1ccc(F)c(F)c1)N1CCC2(CC1)C(=O)N(c1cccc(Cl)c1)C2c1ccccn1 (stereo in doubt; 42a) [listing 1 of 2 here] |  |  |  |  | PPB (Plasma): 98.8%; fraction unbound (Homo sapiens): 0.001
O=C(Nc1ccc(F)c(F)c1)N1CCC2(CC1)C(=O)N(c1cccc(Cl)c1)C2c1ccccn1 (stereo in doubt; 42a) [listing 2 of 2 here] | 82.7% |  |  |  | inhibition (Rattus norvegicus [15]): inactive
O=C(Nc1ccc(F)c(F)c1)N1CCC2(CC1)C(=O)N(c1cccc(Cl)c1)C2c1ccccn1 (stereo in doubt; 42b) |  | 652 nM |  |  | PPB (Plasma): 99.9%
N#Cc1cccc(NC(=O)N2CCC3(CC2)C(=O)N(c2cccc(Cl)c2)C3c2ccccn2)c1 (stereo in doubt; 43a) |  | 57 nM |  |  | PPB (Plasma): 99.2%; fraction unbound (Homo sapiens): 0.013
N#Cc1cccc(NC(=O)N2CCC3(CC2)C(=O)N(c2cccc(Cl)c2)C3c2ccccn2)c1 (stereo in doubt; 43b) [listing 1 of 2 here] |  | 855 nM |  | 0.012 | 
N#Cc1cccc(NC(=O)N2CCC3(CC2)C(=O)N(c2cccc(Cl)c2)C3c2ccccn2)c1 (stereo in doubt; 43b) [listing 2 of 2 here] | 25% |  |  |  | inhibition (Rattus norvegicus [15]): inactive
O=C(Nc1cc(F)cc(F)c1)N1CCC2(CC1)C(=O)N(c1cccc(Cl)c1)C2c1ccccn1 (stereo in doubt; 44a) |  | 18 nM | 3490 nM |  | PPB (Plasma): 98.9%; fraction unbound (Homo sapiens): 0.003
O=C1N(c2ccc(F)c(Cl)c2)C(c2ccccn2)C12CCN(c1nc3cc(F)c(C(F)(F)F)cc3[nH]1)CC2 (stereo in doubt; 52a) [listing 1 of 2 here] |  | 29 nM |  |  | concentration (Rattus norvegicus [11]): 3.4 µM; AUC [10]: 0.814 µM·h
O=C1N(c2ccc(F)c(Cl)c2)C(c2ccccn2)C12CCN(c1nc3cc(F)c(C(F)(F)F)cc3[nH]1)CC2 (stereo in doubt; 52a) [listing 2 of 2 here] | 92% |  |  |  | inhibition (Rattus norvegicus [14]): inactive
O=C1N(c2ccc(F)c(Cl)c2)C(c2ccccn2)C12CCN(c1nc3cc(F)c(C(F)(F)F)cc3[nH]1)CC2 (stereo in doubt; 52b) [listing 1 of 2 here] |  | 31 nM | 106 nM |  | 
O=C1N(c2ccc(F)c(Cl)c2)C(c2ccccn2)C12CCN(c1nc3cc(F)c(C(F)(F)F)cc3[nH]1)CC2 (stereo in doubt; 52b) [listing 2 of 2 here] | 59.8% |  |  |  | inhibition (Rattus norvegicus [14]): inactive
O=C(Nc1cccc(C(F)(F)F)c1)N1CCC2(CC1)C(=O)N(c1ccc(F)c(F)c1)C2c1ccccn1 (stereo in doubt; 411b) |  | 176 nM | 283 nM | 0.005 | concentration (Rattus norvegicus [17]): 2.1 µM
O=C(Nc1ccc(F)c(F)c1)N1CCC2(CC1)C(=O)N(c1cccc(Cl)c1)C2c1cccc[n+]1[O-] (stereo in doubt; form 1) |  | 698 nM |  | 0.066 | 

More lines, main results first:

inhibition [4] | IC50 [5] | IC50 [6] | fraction unbound [9] | SMILES | other results
64% | 174 nM | 340 nM |  | CC(C)N1CC2(CCN(C(=O)Nc3ccc(F)c(F)c3)CC2)C1c1ccc(Cl)cc1 (centres undefined) | IC50 (Cytochrome P450 2C9 [1]): > 30000 nM; IC50 (Cytochrome P450 2C9 [2]): > 30000 nM; Papp [3]: 18.7 ×10⁻⁶ cm/s; IC50 (Cytochrome P450 3A4): > 30000 nM; INH (Cytochrome P450 2D6 [7]): 8.1 µM; INH (Cytochrome P450 2D6 [8]): 0.9 µM
19.1% | 138 nM | 328 nM |  | CC(C)N1CC2(CCN(C(=O)Nc3cc(F)cc(F)c3)CC2)C1c1ccc(Cl)cc1 (centres undefined) | IC50 (Cytochrome P450 2C9 [1]): > 30000 nM; IC50 (Cytochrome P450 2C9 [2]): > 30000 nM; Papp [3]: > 7.34 ×10⁻⁶ cm/s; IC50 (Cytochrome P450 3A4): > 30000 nM; INH (Cytochrome P450 2D6 [7]): 3.6 µM; INH (Cytochrome P450 2D6 [8]): 0.9 µM
20.7% | 920 nM |  | 0.034 | CN1C(=O)C2(CCN(C(=O)Nc3cc(F)cc(F)c3)CC2)C1c1ccc(Cl)cc1 (racemic) | 
46.5% | 172 nM | 995 nM |  | CC(C)N1CC2(CCN(C(=O)Nc3cc(F)cc(F)c3)CC2)C1c1ccc(F)cc1 (racemic) | 
21.8% | 410 nM |  | 0.05 | CN1CC2(CCN(C(=O)Nc3cc(F)cc(F)c3)CC2)C1c1ccc(F)cc1 (racemic) | 
 | 398 nM |  | 0.002 | O=C(Nc1cc(F)cc(F)c1)N1CCC2(CC1)CN(C1CC1)C2c1ccc(Cl)cc1 (racemic) | 
 | 60 nM | 41 nM |  | O=C(Nc1cc(F)cc(F)c1)N1CCC2(CC1)CN(c1ccc(F)c(Cl)c1)C2c1ccccn1 (stereo in doubt; 38a) | PPB (Plasma): 99.9%
 | 291 nM |  | 0.001 | O=C(Nc1cc(F)cc(F)c1)N1CCC2(CC1)CN(c1ccc(F)c(Cl)c1)C2c1ccccn1 (stereo in doubt; 38b) | 
 | 4 nM | 42 nM | 0.004 | O=C(Nc1cc(F)cc(F)c1)N1CCC2(CC1)C(=O)N(c1ccc(F)c(Cl)c1)C2c1ccccn1 (stereo in doubt; 39a) [listing 1 of 2 here] | concentration (Rattus norvegicus [11]): 3.4 µM; fraction unbound (Homo sapiens): 0.001
 | 200 nM |  |  | O=C(Nc1cc(F)cc(F)c1)N1CCC2(CC1)C(=O)N(c1cccc(Cl)c1)C2c1ccccn1 (stereo in doubt; 44b) [listing 1 of 2 here] | PPB (Plasma): 99.5%
36% |  |  |  | O=C(Nc1cc(F)cc(F)c1)N1CCC2(CC1)C(=O)N(c1cccc(Cl)c1)C2c1ccccn1 (stereo in doubt; 44b) [listing 2 of 2 here] | inhibition (Rattus norvegicus [15]): inactive; inhibition (Rattus norvegicus [16]): inactive
